Results taken from PMC3981784 (PLoS ONE, 2014).

Columns and labels:
influenza virus A/WSN/33 = assay: Immunofluorescence microscopy of intra-nuclear nucleoprotein accumulation (virus entry) in MDCK cells; assay type: cell-based
[1] = system: hemagglutinin of A/Puerto Rico/8/1934 (H1N1), A/California/04/2009 (H1N1), A/Netherlands/219/03 (H7N7), and A/Anhui/1/2005 (H5N1); assay type: binding, influenza A virus; conditions: four HA subtypes
[2] = system: recombinant HA of A/Puerto Rico/8/1934 (H1N1), A/California/04/2009 (H1N1), A/Netherlands/219/03 (H7N7), and A/Anhui/1/2005 (H5N1); assay type: biochemical, influenza A virus; conditions: HA incubated on ice 30 min with compound; four HA subtypes
[3] = system: purified influenza virus A/WSN/33; assay: Atomic force microscopy (AFM) of virus particles; conditions: 50 μM; for aggregation of viral particles (AFM images): 1 hour on ice; for heights of virions (AFM): versus DMSO-treated virions
A/WSN/33 (H1N1) = assay: Hemagglutination inhibition assay with chicken red blood cells; conditions: Influenza A virus, Erythrocyte, in Gallus gallus, read-out: EC50, inhibition of virus-induced hemagglutination
[4] = system: purified influenza virus A/WSN/33; conditions: PGG 25 μM; TritonX-100 0.5% (v/v)
[5] = target: hemagglutinin derived from influenza A/California/04/2009(H1N1) (Influenza A virus, UniProt C3W5S1); assay: Competition binding assay with sialic acid (native PAGE band gray scale); assay type: biochemical; conditions: for HA aggregation (decrease of relative density of HA monomer) / HA aggregation (decrease of relative density of HA monomer), percent: 6 μM PGG; for hemagglutinin aggregation (native PAGE lane): 600 μM SA alone (Lane 2), 6 μM PGG alone (Lane 3)
MDCK cells = system: MDCK cells; set-up: method as in PMID 21479599, PMID 19575286; conditions: ref [29], [30], read-out: cytotoxicity EC50; cited from earlier work
influenza virus = system: influenza virus; set-up: method as in PMID 21479599, PMID 19575286; conditions: ref [29], [30]; read-out: active concentration EC50 (anti-influenza virus activity); cited from earlier work

Sequence of hemagglutinin derived from influenza A/California/04/2009(H1N1) (C3W5S1 entry or part of it, added parts left off): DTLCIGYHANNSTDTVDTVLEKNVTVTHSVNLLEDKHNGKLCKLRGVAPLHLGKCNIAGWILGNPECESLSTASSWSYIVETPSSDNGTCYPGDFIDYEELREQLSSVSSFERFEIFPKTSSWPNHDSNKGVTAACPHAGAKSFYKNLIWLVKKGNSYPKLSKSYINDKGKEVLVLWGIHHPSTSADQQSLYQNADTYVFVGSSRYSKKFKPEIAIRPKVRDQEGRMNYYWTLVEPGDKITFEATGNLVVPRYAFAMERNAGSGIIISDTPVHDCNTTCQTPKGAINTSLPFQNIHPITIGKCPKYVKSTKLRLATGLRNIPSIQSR

O=C(O)c1cc(O)c(O)c(O)c1 [GA, Gallic acid]
intra-nuclear accumulation of virus nucleoprotein (NP), virus entry (influenza virus A/WSN/33): viral NP was detected in the nucleus | interactions with HAs (SPR) [1]: No significant interactions | HA aggregation on native PAGE (HA polymer formation) [2]: not observed | aggregation of viral particles (AFM images) [3]: dispersive | EC50 (A/WSN/33 (H1N1)): > 50000 nM

O=C(OC[C@H]1O[C@@H](OC(=O)c2cc(O)c(O)c(O)c2)[C@H](OC(=O)c2cc(O)c(O)c(O)c2)[C@@H](OC(=O)c2cc(O)c(O)c(O)c2)[C@@H]1O)c1cc(O)c(O)c(O)c1 [TGG, 1,2,3,6-Tetra-O-galloyl-beta-D-glucose]
intra-nuclear accumulation of virus nucleoprotein (NP), virus entry (influenza virus A/WSN/33): significantly decreased in the number of nucleoprotein-positive nucleus | aggregation of viral particles (AFM images) [3]: significantly aggregated | heights of virions (AFM) [3]: significantly greater than that of DMSO-treated virions | EC50 (A/WSN/33 (H1N1)): 1 ± 1 nM

O=c1oc2c(O)c(O)cc3c(=O)oc4c(O)c(O)cc1c4c23 [EA, Ellagic acid]
EC50 (A/WSN/33 (H1N1)): 446 nM

O=C(OC[C@H]1O[C@@H](OC(=O)c2cc(O)c(O)c(O)c2)[C@H](OC(=O)c2cc(O)c(O)c(O)c2)[C@@H](OC(=O)c2cc(O)c(O)c(O)c2)[C@@H]1OC(=O)c1cc(O)c(O)c(O)c1)c1cc(O)c(O)c(O)c1 [PGG, penta-galloyl-glucose]
intra-nuclear accumulation of virus nucleoprotein (NP), virus entry (influenza virus A/WSN/33): significantly decreased in the number of nucleoprotein-positive nucleus | aggregation of viral particles (AFM images) [3]: significantly aggregated | heights of virions (AFM) [3]: significantly greater than that of DMSO-treated virions | membrane structures of the virus particles (TEM) [4]: remain undisrupted | HA aggregation (decrease of relative density of HA monomer) ([5]; with the presence of 600 μM SA): 0.22 | HA aggregation (decrease of relative density of HA monomer), percent ([5]; with the presence of 600 μM SA): 20.7% | HA aggregation (decrease of relative density of HA monomer) ([5]; without SA): 0.33 | HA aggregation (decrease of relative density of HA monomer), percent ([5]; without SA): 33.2% | hemagglutinin aggregation (native PAGE lane) [5]: increases hemagglutinin aggregation | EC50 (MDCK cells): 31.5 ± 4.6 µM | EC50 (influenza virus): 2510 ± 310 nM | EC50 (A/WSN/33 (H1N1)): 5 ± 2 nM

CC(=O)N[C@H]1[C@H]([C@H](O)[C@H](O)CO)OC(O)(C(=O)O)C[C@@H]1O (stereo partly shown) [SA, Sialic acid, reference compound]
hemagglutinin aggregation (native PAGE lane) [5]: reduces hemagglutinin aggregation

TritonX-100 [reference compound]
membrane structures of the virus particles (TEM) [4]: destroyed membrane structures

O=C(O[C@@H]1Cc2c(O)cc(O)cc2O[C@@H]1c1cc(O)c(O)c(O)c1)c1cc(O)c(O)c(O)c1 [EGCG, (−)-epigallocatechin-3-gallate]
EC50 (A/WSN/33 (H1N1)): 430 ± 1 nM
